Source: patent US12378224B2 (Dong-A Socio Holdings Co., Ltd., priority 2016, dated 2025)

Assays:
human MER (528-end) = human MER (528-end) (Homo sapiens (Human), UniProt Q12866); assay: HTRF Kinase Activity Biochemical Assay (KinEASE-TK); settings: 10 uM ATP
Summary of the method: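 Activity read-out is the HTRF ratio (665 nm over 620 nm emission, ×10,000; excitation 340 nm) after 1 h detection with 0.375 nM Eu3+-cryptate anti-TK antibody plus 0.062 uM SA-XL665. Preceding kinase step: human MER (528-end), biotinylated TK substrate, 1 h, room temperature.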

[1] = target: BCR fusion to kinase domain of MerTK (Ba/F3-MerTK) (Homo sapiens, UniProt Q12866); assay: In Cell TAM Kinase Assay Using BaF3 Cellular System; type: cell-based, murine; settings: Ba/F3 BCR-kinase fusion proliferation, 72 hours, Cell Titer Glo; kinase not given; read-out: IC50
From the text: Three Ba/F3 cell lines (a murine IL-3 dependent pro-B cell line) expressing BCR fusions to the kinase domains of either MerTK (Ba/F3-MerTK), Axl (Ba/F3-Axl), or Tyro3 (Ba/F3-Tyro3) were purchased from Advanced Cellular Dynamics. The IL-3 independence of all 3 cell lines was confirmed. After thawing, the 3 Ba/F3 cell lines were split and maintained in cell culture media, which consisted of RPMI-1640-HEPES (Thermo-Cat #22400-089) with 1× Glutamax (Thermo-Cat #35050-061) and 10% FBS (Sigma-Cat #F4135 (500 ml), at a cell density range of 0.05×10^6−1×10^6 cells/mL 4 days before used in the routine screen. Compound plates were prepared using Nunc™ white 384-well optical bottom plates (ThermoFisher, USA) with compound in 25 nL dimethyl sulfoxide in each well. For routine assays, each of the 3 Ba/F3 cell lines was seeded at 1,000 cells per well with 25 µL of cell culture media directly into 384-well compound plates and incubated for 72 hours. Cell proliferation was then measured by adding 25 μL of Cell Titer Glo 2.0 (Promega, USA). After incubating with Cell Titer Glo at room temperature for 30 mins, the luminescence intensity, which quantifies the cell viability, was measured using an Envision™ plate reader (PerkinElmer, USA). […] In the presence of IL-3, the proliferation of the Ba/F3-Tyro3 cells is no longer dependent on the Tyro3 kinase activity.

[2] = target: human c-MER catalytic domain (Homo sapiens (Human), UniProt Q12866); assay: TR-FRET Kinase Activity Biochemical Assay (LanthaScreen); settings: 10 uM ATP, 1 hour, kinase not given
Summary of the method: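 Activity was quantified as the ratio of 495 nm to 520 nm emission (excitation 340 nm) in a LanthaScreen TR-FRET format. The enzyme was the human c-MER catalytic domain, and the substrate was fluorescein-poly-GT. Detection used 2 nM Tb anti-phosphotyrosine antibody for 30 min after termination with 10 mM EDTA.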

Chain of human MER (528-end) (Q12866 528-999 limits assumed): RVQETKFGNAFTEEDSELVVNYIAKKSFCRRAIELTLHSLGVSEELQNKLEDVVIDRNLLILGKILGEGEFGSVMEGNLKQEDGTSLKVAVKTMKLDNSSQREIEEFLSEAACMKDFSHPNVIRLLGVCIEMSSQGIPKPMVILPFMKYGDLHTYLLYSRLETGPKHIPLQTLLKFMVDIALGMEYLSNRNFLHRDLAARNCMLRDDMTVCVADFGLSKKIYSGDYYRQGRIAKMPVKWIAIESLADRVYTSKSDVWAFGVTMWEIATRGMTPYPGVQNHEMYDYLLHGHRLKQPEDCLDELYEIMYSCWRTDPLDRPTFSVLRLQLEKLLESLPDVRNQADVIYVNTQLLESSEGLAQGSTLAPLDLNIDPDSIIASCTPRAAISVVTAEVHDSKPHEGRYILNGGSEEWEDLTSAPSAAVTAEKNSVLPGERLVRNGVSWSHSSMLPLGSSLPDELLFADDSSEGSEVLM
Chain of human c-MER catalytic domain (Q12866 587-858): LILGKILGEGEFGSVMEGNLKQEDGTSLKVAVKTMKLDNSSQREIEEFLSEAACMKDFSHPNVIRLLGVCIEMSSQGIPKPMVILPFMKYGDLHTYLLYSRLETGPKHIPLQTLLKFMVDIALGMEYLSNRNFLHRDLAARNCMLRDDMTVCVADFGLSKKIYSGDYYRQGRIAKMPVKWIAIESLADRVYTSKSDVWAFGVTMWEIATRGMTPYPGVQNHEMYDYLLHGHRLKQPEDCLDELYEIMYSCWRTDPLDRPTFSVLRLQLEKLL
Chain of BCR fusion to kinase domain of MerTK (Ba/F3-MerTK) (Q12866 21-999 limits assumed, stated change not applied): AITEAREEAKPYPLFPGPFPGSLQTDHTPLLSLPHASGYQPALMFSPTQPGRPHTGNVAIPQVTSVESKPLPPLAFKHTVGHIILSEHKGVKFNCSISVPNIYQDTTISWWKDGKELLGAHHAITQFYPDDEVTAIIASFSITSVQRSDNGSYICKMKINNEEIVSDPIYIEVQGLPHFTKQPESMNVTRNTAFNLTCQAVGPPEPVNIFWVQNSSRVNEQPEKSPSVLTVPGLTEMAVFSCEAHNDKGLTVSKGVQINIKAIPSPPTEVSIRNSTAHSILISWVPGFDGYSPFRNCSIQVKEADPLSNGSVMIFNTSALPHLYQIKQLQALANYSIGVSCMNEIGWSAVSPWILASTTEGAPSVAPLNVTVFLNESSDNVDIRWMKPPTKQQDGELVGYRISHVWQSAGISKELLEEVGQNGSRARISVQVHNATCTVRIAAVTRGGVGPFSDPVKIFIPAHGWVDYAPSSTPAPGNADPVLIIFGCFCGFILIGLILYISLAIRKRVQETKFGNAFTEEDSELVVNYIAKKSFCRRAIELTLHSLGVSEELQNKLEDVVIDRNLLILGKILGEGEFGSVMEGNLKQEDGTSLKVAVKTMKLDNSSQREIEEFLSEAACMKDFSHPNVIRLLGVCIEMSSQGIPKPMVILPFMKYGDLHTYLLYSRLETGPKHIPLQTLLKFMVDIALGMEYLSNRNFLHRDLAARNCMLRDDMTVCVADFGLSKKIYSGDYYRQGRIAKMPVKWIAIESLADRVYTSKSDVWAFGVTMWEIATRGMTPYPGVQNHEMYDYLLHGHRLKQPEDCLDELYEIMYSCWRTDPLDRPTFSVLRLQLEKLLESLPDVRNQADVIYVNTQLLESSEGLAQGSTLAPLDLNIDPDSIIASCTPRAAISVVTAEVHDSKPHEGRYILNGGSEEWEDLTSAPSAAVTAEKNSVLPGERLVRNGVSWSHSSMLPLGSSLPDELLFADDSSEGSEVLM

Compound | IC50 (human MER (528-end)) [nM] | IC50 [1] [nM] | IC50 [2] [nM]
Cn1cc(-c2cnc(N)c(C(=O)N[C@@H]3CCN(C(=O)c4ccc(-c5ccc(F)cc5F)cc4)C3)c2)cn1 [Example 365, (R)-2-amino-N-(1-(2′,4′-difluoro-[1,1′-biphenyl]-4-carbonyl)pyrrolidin-3-yl)-5-(1-methyl-1H-pyrazol-4-yl)nicotinamide] | 10 to 100 | > 1000 | 
Cn1cc(-c2cnc(N)c(C(=O)N[C@@H]3CCN(C(=O)c4ccc(-c5ccc(F)cc5Cl)cc4)C3)c2)cn1 [Example 366, (R)-2-amino-N-(1-(2′-chloro-4′-fluoro-[1,1′-biphenyl]-4-carbonyl)pyrrolidin-3-yl)-5-(1-methyl-1H-pyrazol-4-yl)nicotinamide] | 10 to 100 | 100 to 500 | 
Cn1cc(-c2cnc(N)c(C(=O)N[C@@H]3CCN(C(=O)c4ccc(-c5ccccc5F)cc4)C3)c2)cn1 [Example 370, (R)-2-amino-N-(1-(2′-fluoro-[1,1′-biphenyl]-4-carbonyl)pyrrolidin-3-yl)-5-(1-methyl-1H-pyrazol-4-yl)nicotinamide] | 10 to 100 | > 1000 | 
Cc1cscc1-c1ccc(C(=O)N2CC[C@@H](NC(=O)c3cc(-c4cnn(C)c4)cnc3N)C2)cc1 [Example 523, (R)-2-amino-5-(1-methyl-1H-pyrazol-4-yl)-N-(1-(4-(4-methylthiophen-3-yl)benzoyl)pyrrolidin-3-yl)nicotinamide] | 10 to 100 | 500 to 1000 | 
Cc1csc(-c2ccc(C(=O)N3CC[C@@H](NC(=O)c4cc(-c5cnn(C)c5)cnc4N)C3)cc2)c1 [Example 525, (R)-2-amino-5-(1-methyl-1H-pyrazol-4-yl)-N-(1-(4-(4-methylthiophen-2-yl)benzoyl)pyrrolidin-3-yl)nicotinamide] | 10 to 100 | 100 to 500 | 
Cn1cc(-c2cnc(N)c(C(=O)N[C@@H]3CCN(C(=O)C(=O)c4ccccc4)C3)c2)cn1 [Example 546, (R)-2-amino-5-(1-methyl-1H-pyrazol-4-yl)-N-(1-(2-oxo-2-phenylacetyl)pyrrolidin-3-yl)nicotinamide] | > 1000 | > 1000 | 
CN1CCN(Cc2ccc(-c3cnc(N)c(C(=O)N[C@@H]4CCN(C(=O)c5ccc(-c6ccccc6)cc5)C4)c3)cc2)CC1 [Example 567, (R)—N-(1-([1,1′-biphenyl]-4-carbonyl)pyrrolidin-3-yl)-2-amino-5-(4-((4-methylpiperazin-1-yl)methyl)phenyl)nicotinamide] | 10 to 100 | > 1000 | 
Cn1cc(-c2cnc(N)c(C(=O)N[C@@H]3CCN(C(=O)c4ccc5cc(OCC6CCNCC6)ccc5c4)C3)c2)cn1 [Example 761] |  | > 1000 | 
CC(/C=C/c1ccc(C(=O)N2CC[C@@H](NC(=O)c3cc(-c4cnn(C)c4)cnc3N)C2)cc1)N1CCN(C)CC1 (stereo partly drawn) [Example 822, 2-amino-5-(1-methyl-1H-pyrazol-4-yl)-N-((3R)-1-(4-((E)-3-(4-methylpiperazin-1-yl)but-1-en-1-yl)benzoyl)pyrrolidin-3-yl)nicotinamide] |  |  | < 10

Now from value to compound:

IC50 (human MER (528-end)) [nM] | IC50 [1] [nM] | IC50 [2] [nM] | Compound
> 1000 | 100 to 500 |  | Cn1cc(-c2cnc(N)c(C(=O)N[C@@H]3CCN(C(=O)OC4CCCC(c5ccccc5)C4)C3)c2)cn1 (stereo partly drawn) [Example 129, 3-phenylcyclohexyl (3R)-3-(2-amino-5-(1-methyl-1H-pyrazol-4-yl)nicotinamido)pyrrolidine-1-carboxylate]
100 to 1000 | > 1000 |  | Cn1cc(-c2cnc(N)c(C(=O)N[C@@H]3CCN(C(=O)c4ccc(-c5ccc(C=O)cc5)cc4)C3)c2)cn1 [Example 381, (R)-2-amino-N-(1-(4′-formyl-[1,1′-biphenyl]-4-carbonyl)pyrrolidin-3-yl)-5-(1-methyl-1H-pyrazol-4-yl)nicotinamide]
100 to 1000 | > 1000 |  | Cn1cc(-c2cnc(N)c(C(=O)N[C@@H]3CCN(C(=O)c4ccc(-c5ccc(Oc6ccc(N)cc6)cc5)cc4)C3)c2)cn1 [Example 505, (R)-2-amino-N-(1-(4′-(4-aminophenoxy)-[1,1′-biphenyl]-4-carbonyl)pyrrolidin-3-yl)-5-(1-methyl-1H-pyrazol-4-yl)nicotinamide]
10 to 100 | > 1000 |  | Cc1ccc(-c2ccc(C(=O)N3CC[C@@H](NC(=O)c4cc(-c5cnn(C)c5)cnc4N)C3)cc2)s1 [Example 526, (R)-2-amino-5-(1-methyl-1H-pyrazol-4-yl)-N-(1-(4-(5-methylthiophen-2-yl)benzoyl)pyrrolidin-3-yl)nicotinamide]
10 to 100 | > 1000 |  | Cn1cc(-c2cnc(N)c(C(=O)N[C@@H]3CCN(C(=O)c4ccc(-c5ccc(Cl)s5)cc4)C3)c2)cn1 [Example 534, (R)-2-amino-N-(1-(4-(5-chlorothiophen-2-yl)benzoyl)pyrrolidin-3-yl)-5-(1-methyl-1H-pyrazol-4-yl)nicotinamide]
10 to 100 | > 1000 |  | CC(C)(c1ccc(-c2cnc(N)c(C(=O)N[C@@H]3CCN(C(=O)c4ccc(-c5ccccc5)cc4)C3)c2)cc1)N1CCN(CCO)CC1 [Example 565, (R)—N -(1-([1,1′-biphenyl]-4-carbonyl)pyrrolidin-3-yl)-2-amino-5-(4-(2-(4-(2-hydroxyethyl)piperazin-1-yl)propan-2-yl)phenyl)nicotinamide]
10 to 100 | > 1000 |  | Nc1ncc(-c2ccc(N3CCOCC3)nc2)cc1C(=O)N[C@@H]1CCN(C(=O)c2ccc(-c3ccc(F)cc3Cl)cc2)C1 [Example 584, (R)-6-amino-N-(1-(2′-chloro-4′-fluoro-[1,1′-biphenyl]-4-carbonyl)pyrrolidin-3-yl)-6′-morpholino-[3,3′-bipyridine]-5-carboxamide]
10 to 100 | 500 to 1000 |  | Nc1ncc(-c2cnn(Cc3cccnc3)c2)cc1C(=O)N[C@@H]1CCN(C(=O)c2ccc(-c3ccc(F)cc3Cl)cc2)C1 [Example 586, (R)-2-amino-N-(1-(2′-chloro-4′-fluoro-[1,1′-biphenyl]-4-carbonyl)pyrrolidin-3-yl)-5-(1-(pyridin-3-ylmethyl)-1H-pyrazol-4-yl)nicotinamide]
10 to 100 | > 1000 |  | CN1CCN(C(=O)c2ccc(-c3cnc(N)c(C(=O)N[C@@H]4CCN(C(=O)c5ccc(-c6ccccc6Cl)cc5)C4)c3)cc2)CC1 [Example 588, (R)-2-amino-N-(1-(2′-chloro-[1,1′-biphenyl]-4-carbonyl)pyrrolidin-3-yl)-5-(4-(4-methylpiperazine-1-carbonyl)phenyl)nicotinamide]
10 to 100 | > 1000 |  | Nc1ncc(-c2ccc(C(=O)N3CCOCC3)cc2)cc1C(=O)N[C@@H]1CCN(C(=O)c2ccc(-c3ccccc3Cl)cc2)C1 [Example 590, (R)-2-amino-N-(1-(2′-chloro-[1,1′-biphenyl]-4-carbonyl)pyrrolidin-3-yl)-5-(4-(morpholine-4-carbonyl)phenyl)nicotinamide]
 |  | 100 to 1000 | CN(C)CCCNc1ncc(-c2cnn(C)c2)cc1C(=O)N[C@@H]1CCN(C(=O)c2ccc(-c3ccc(OCCCN(C)C)cc3)cc2)C1 [Example 848, (R)—N-(1-(4′-(3-(dimethylamino)propoxy)-[1,1′-biphenyl]-4-carbonyl)pyrrolidin-3-yl)-2-((3-(dimethylamino)propyl)amino)-5-(1-methyl-1H-pyrazol-4-yl)nicotinamide]
 |  | > 1000 | (R,E)-2-amino-5-(1-methyl-1H-pyrazol-4-yl)-N-(1-(4-(3-oxobut-1-en-1-yl)benzoyl)pyrrolidin-3-yl)nicotinamide [Example 681]
